# Where a SMILES comes first, the peptide text is derived from it.
# What was measured:
# [1] = CX4/LCG supramolecular tandem membrane assay, POPC vesicles; format: in vitro ADME; conditions: n = 1; for EC50: pH 7.5, error = SD of fit; for Y30µM, membrane activity, CX4/LCG assay: 30 µM peptide, 25 µM POPC⸧CX4/LCG-LUVs (inside 700 µM CX4, 500 µM LCG) in 10 mM Hepes, pH 7.0, 25 °C, fluorescence λexc 369/λem 502 nm, peptide at 60 s, TX-100/protamine at 600 s, fractional activity
# Experimental: Membrane Activity M easurements
# Vesicle preparation. 100 µ L of a solution of 25 mg/ml of POPC in chloroform or 200 µ L of a solution of 25 mg/ml of EYPC in chloroform was purged with nitrogen and dried overnight under hi gh vacuum. The thin lipid film was rehydrated with 1 ml reh ydrati on buffer (= inside buffer, see Tabl e S2 ) b y agitation at room temperature for 30min and then subjected to 2 0 freeze- th aw c ycles (freezing in liquid nitro gen and thawing at 40 °C). […]
# Ta b l e S 2. Combinations of lipids and inside and outside buffer for CX4/LCG -LUVs.
# No. Lipid Inside buffer = rehydration buffer Outside buffer
# (4) POPC 10 mM Hepes, 700 µM CX4, 500 µM LCG, 10 mM Hepes buffer, 175 mM glucose, pH 7.5 [a] 175 mM glucose, pH 7.5 [a]
# [a] Glucose b uffers (183 mOsm/L at 25 °C) were used within one week after preparation.
# Vesicle quality control. T o ensure the absence of the CX4/ LCG reporter pair in the ex travesicular ph ase, 20 µL of the collected liposome fr action w as diluted to 2 ml with outside buffer and the fluor escen ce (λ exc = 369 nm; λ em = 502 nm) was recorded during the addition of […]
# The final lipid content in the liposome suspension after p repa rat ion and separ ation was d etermined b y NMR as p reviousl y reported. Assay protocol. An appropriate volume of the liposome stock solutions was diluted to 2m L with outside buffer in a 10 ×10 mm quartz glass cuvette to afford a phospholipid concentration of 25 µM. The cuvette was placed into a thermostatted fluorimeter sample holder at 25.0 °C and gentl y stirred at 300 rpm. Subsequently, the time-dependent change in fluorescence intensity (λ exc = 369 nm; λ em = 502 nm) was record ed during addition of 20 µ L of peptide stock solutions of varying concentrations at 60 s. At 600 s, 20µ L o f a solution containing 1.6% (wt/vol) TX-100 and 1.5 mM protamine was added for calibration to affo rd 0.016% (wt/vol) TX-100 and 15 µM protamine final concent rations.
# Time-dep endent fluores cence intensit y traces, I (t), were subsequentl y normalized to fractional intensities, If(t), using equation (1). Therein, I 0 is the intensity just before addition of peptide and I ∞ is the constant intensit y after addition of the calibration cockt ail.
# IIf (tt ) = II (tt )−II0II∞ − II0 (1)
# The concentration-dependent fractional intensities just before the addition of the calibration cocktail, If, were then normalized to fractional membrane activities, Y, using equation (2).
# Therein, If,0 is the fractional intensit y just before addition of the calibration cocktail in absence of peptide and I f,∞ is the constant fractional intensity after addition of the calibration cocktail.
# YY = IIf − IIf,0IIf,∞ − IIf,0 (2)
# The fractional membrane activities, Y, were subsequently plotted against the peptide concentration, c, and analysed using the Hill equation (3) to obtain the effective molar concentration, EC50, and the Hill coefficient, n. Y0 and Y ma x are the fractional membrane activities in absen ce o f p eptide and at max imal peptide concent rations. For peptides with too little activity to determine Y ma x ex perimentall y, Y max was fixed at 1.0 during fitting. […]
# [2] = Dual-channel assay, CF channel, POPC vesicles; format: biochemical; conditions: 12.5 µM POPC⸧CX4/LCG-LUVs and 12.5 µM POPC⸧CF-LUVs in 10 mM Hepes, 175 mM glucose, pH 7.5, 25 °C; λexc 525/λem 545 nm; error = SD of fit, n = 1
# Description: With the established identical extravesicular conditions in both assays, we further envisaged a simultaneous measurement of both assays within the same solution to enhance the comparability of the measurements. This became possible after optimization of the excitation and emission wavelengths. […] A further optimization was required, because the dye concentrations in the CF assay and the CX4/LCG assay are largely different.^[ [51], [52] ^] Consequently, simultaneous monitoring requires the detection of a low amount of LCG in the presence of a high concentration of the much more brightly fluorescent CF, which challenges the dynamic range of a typical fluorescence spectrometer in a dual‐channel measurement. To reduce the fluorescence read‐out of CF, the excitation wavelength was shifted from the absorption maximum at ca. 490 nm to 525 nm, where CF has a much lower absorbance, and the emission in the CF channel was shifted from its maximum at ca. 515 nm to 545 nm to further reduce the fluorescence of CF. To maintain a high LCG fluorescence, excitation was performed at the absorption maximum at 369 nm. Since CF has a residual absorbance at this excitation wavelength, emission in the LCG channel was monitored at 475 nm instead of 502 nm to eliminate spill‐over of CF fluorescence into the LCG channel. […]
# Time-dep endent fluores cence intensit y traces, I (t), were subsequentl y normalized to fractional intensities, If(t), using equation (1) and the concentration- dependent fractional intensities just before the addition of th e calibration co cktail, I f, w ere then normaliz ed to fr actional membran e activities, Y, using equation (2). The fractional membrane activities, Y, were subsequently plotted against the peptide concentration, c, and anal ysed using the Hill equation (3) to obtain the effective molar concentration, EC 50, and the Hill coefficient, n. For peptides with too low activity to determine Y max ex perimentall y, Y max was fixed at 1.0 during fitting. […]
# Dual-Channel Measurements
# Vesicles w ere prep ared a s described abov e (se e en try (4) in Table S2 and entry (3) in Table S3) and eluted with freshl y prepared 10 mM Hepes, 175mM glucos e, pH 7.5 i n the size exclusion chromatograph y. […] The fluorescence intensity w as simultaneous l y r eco rded in the CF chann el ( λ exc = 525 nm, λ em = 545 nm) and in the LCG channel ( λ exc = 369 nm, λ em = 475 nm) with an ex citation slit width of 5 nm and an emission slit width of 5 n m during addition of 20 µL peptide stock solution of varying concentrations at 60 s and 20 µL of a calibration
# [3] = 25 µM lipid, POPC⊃CX4/LCG-LUVs, 10 mM Hepes, fractional activity at 590 s, Hill fit, read-out: EC50, CX4/LCG assay, POPC
# [4] = single-channel, 25 µM POPC⸧CX4/LCG-LUVs, inside 10 mM Hepes, 700 µM CX4, 500 µM LCG, 175 mM glucose, outside 10 mM Hepes, 175 mM glucose, read-out: EC50, CX4/LCG assay in glucose-containing buffer
SMILES,"EC50 [1, 3] [µM]","Y30µM, membrane activity, CX4/LCG assay [1]","EC50 [1, 4] [µM]",EC50 [2] [µM]
CC[C@H](C)[C@H](NC(=O)[C@H](CCCCN)NC(=O)[C@@H](NC(=O)[C@@H](N)CCC(N)=O)[C@@H](C)CC)C(=O)N[C@@H](Cc1c[nH]c2ccccc12)C(=O)N[C@@H](Cc1ccccc1)C(=O)N[C@@H](CCC(N)=O)C(=O)N[C@@H](CC(N)=O)C(=O)N[C@@H](CCCNC(=N)N)C(=O)N[C@@H](CCCNC(=N)N)C(=O)N[C@@H](CCSC)C(=O)N[C@@H](CCCCN)C(=O)N[C@@H](Cc1c[nH]c2ccccc12)C(=O)N[C@@H](CCCCN)C(=O)N[C@@H](CCCCN)C(=O)O (H-QIKIWFQNRRMKWKK-OH),70 ± 13,0.49,140 ± 40,> 1000
CC(C)C[C@H](NC(=O)[C@H](CC(C)C)NC(=O)[C@H](CCCNC(=N)N)NC(=O)[C@@H](N)CC(C)C)C(=O)N[C@@H](CCCNC(=N)N)C(=O)N[C@@H](Cc1c[nH]c2ccccc12)C(N)=O [LRLLRW] (H-LRLLRW-NH2),–,0.53,14 ± 2,49 ± 6
CC(C)[C@H](NC(=O)[C@H](CCCCN)NC(=O)[C@H](CCCNC(=N)N)NC(=O)[C@H](CCCCN)NC(=O)[C@H](CCCCN)NC(=O)[C@H](CCCCN)NC(=O)[C@@H]1CCCN1C(=O)[C@H](CCC(N)=O)NC(=O)[C@H](CO)NC(=O)[C@H](Cc1c[nH]c2ccccc12)NC(=O)[C@H](CC(=O)O)NC(=O)[C@@H](NC(=O)[C@H](Cc1c[nH]c2ccccc12)NC(=O)[C@H](Cc1c[nH]c2ccccc12)NC(=O)[C@@H](NC(=O)[C@H](CC(=O)O)NC(=O)[C@H](Cc1c[nH]c2ccccc12)NC(=O)[C@H](Cc1c[nH]c2ccccc12)NC(=O)[C@@H](NC(=O)[C@H](CC(=O)O)NC(=O)[C@@H](N)CCCCN)[C@@H](C)O)[C@@H](C)O)[C@@H](C)O)C(=O)O [Pep‐1] (H-KDTWWDTWWTDWSQPKKKRKV-OH),32 ± 14,0.67,4.5 ± 0.7,> 1000
CC[C@H](C)[C@H](NC(=O)[C@H](CCCCN)NC(=O)[C@H](CCCCN)NC(=O)[C@H](C)NC(=O)[C@H](CC(C)C)NC(=O)[C@H](C)NC(=O)[C@H](C)NC(=O)[C@H](CC(C)C)NC(=O)[C@H](C)NC(=O)[C@H](CCCCN)NC(=O)[C@H](CC(C)C)NC(=O)[C@H](CC(N)=O)NC(=O)[C@@H](NC(=O)[C@H](CCCCN)NC(=O)CNC(=O)[C@H](CC(C)C)NC(=O)[C@H](CC(C)C)NC(=O)[C@H](Cc1ccc(O)cc1)NC(=O)CNC(=O)[C@H](C)N)[C@@H](C)CC)C(=O)N[C@@H](CC(C)C)C(=O)O [TP10],–,0.88,1.7 ± 0.6,0.053 ± 0.007

# — paper PMC12851007 (Angewandte Chemie (International Ed. in English), 2025)
